The source of these data is patent US9394284B2, “Compounds act at multiple prostaglandin receptors giving a general anti-inflammatory response” (Allergan, Inc., priority 2010, dated 2016).

Assay type in all cases: cell-based
In experiment [1] the target is T1, human prostanoid DP1 receptor (Homo sapiens, UniProt Q13258).
T1 construct: expressed in transfected cells
T1 sequence (Q13258 1-359): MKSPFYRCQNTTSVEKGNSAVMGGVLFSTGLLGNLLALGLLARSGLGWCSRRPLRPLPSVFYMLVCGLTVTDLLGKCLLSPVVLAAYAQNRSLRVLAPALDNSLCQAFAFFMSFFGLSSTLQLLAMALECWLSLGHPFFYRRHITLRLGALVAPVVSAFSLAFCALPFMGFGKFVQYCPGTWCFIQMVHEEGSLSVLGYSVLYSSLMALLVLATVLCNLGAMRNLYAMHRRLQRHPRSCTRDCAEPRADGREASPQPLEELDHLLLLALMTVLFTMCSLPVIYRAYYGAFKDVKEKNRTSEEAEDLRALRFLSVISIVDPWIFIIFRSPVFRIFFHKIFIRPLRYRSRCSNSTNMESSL
The experiment in a line: FLIPR Ca2+ signaling antagonist assay, DP1 receptor stable cell line. The following applies: HEK-293 EBNA stable cell line; standard agonist BW 245C; NA = inactive (no antagonism or Kb 10,000 nM); PAg, Ag not defined. On the procedure: (§1) The above compounds were tested for PG antagonist activity as follows using human recombinant prostanoid receptor (DP1, EP1-4, FP, IP and TP) stable cell lines:
(§2) In order to measure the response of Gs and Gi coupled prostanoid receptors as a Ca^2+ signal, chimeric G protein cDNAs were used. Stable cell lines over-expressing human prostanoid DP1, EP1-4, FP, IP, and TP receptors were established as follows:
(§3) Briefly, human prostanoid DP1, EP2, and EP4 receptor cDNAs were co-transfected with chimeric Gqs cDNA containing a haemagglutanin (HA) epitope; human prostanoid EP3 receptors were co-transfected with chimeric Gqi-HA; human EP1, FP, IP, and TP receptor cDNAs were expressed with no exogenous G-proteins. Gqs and Gqi chimeric cDNAs (Molecular Devices, Sunnyvale, Calif., U.S.A.), as well as cDNAs of prostanoid receptors, were cloned into a pCEP4 vector with a hygromycin B selection marker. Transfection into HEK-293 EBNA (Epstein-Barr virus nuclear antigen) cells was achieved by the FuGENE 6 transfection Reagent (Roche Applied Science, Indianapolis, Ind., USA). Stable transfectants were selected according to hygromycin resistance. Because Gqs and Gqi contained an HA epitope, G-protein expression was detected by Western blotting analysis using anti-mouse HA monoclonal antibody and horseradish peroxidase (HRP)-conjugated secondary antibody, while functional expression of prostanoid receptors was detected by FLIPR screening (Matias et al., 2004). These stable cell lines were validated using previously published antagonists at 10 μM against serial dilutions of standard agonists by FLIPR functional assays for Ca^2+ Signaling (as described below).
(§4) Ca^2+ signaling studies were performed using a FLIPR TETRA system (Molecular Devices, Sunnyvale, Calif., USA) in the 384-format. This is a high-throughput instrument for cell-based assays to monitor Ca^2+ signaling associated with GPCRs and ion channels. Cells were seeded at a density of 5×10^4 cells/well in BioCoat poly-D-lysine coated, black wall, clear bottom 384-well plates (BD Biosciences, Franklin lakes, NJ, USA) and allowed to attach overnight in an incubator at 37° C. The cells were then washed twice with HBSS-HEPES buffer (Hanks' balanced salt solution without bicarbonate and phenol red, 20 mM HEPES, pH 7.4) using an ELx405 Select CW Microplate Washer (BioTek, Winooski, Vt., USA). After 60 min of dye-loading in the dark using the Ca^2+-sensitive dye Fluo-4AM (Invitrogen, Carlsbad, Calif., USA), at a final concentration of 2×10^−6M, the plates were washed 4 times with HBSS-HEPES buffer to remove excess dye and leaving 50 μl of buffer in each well. The plates were then placed in the FLIPR TETRA instrument and allowed to equilibrate at 37° C. AGN-211377 was added in a 25 μl volume to each well to give final concentrations of 0.1 μM, 0.3 μM, 1 μM, 3 μM, 10 μM, and 30 μM; or 0.067 μM, 0.1 μM, 0.2 μM, 0.3 μM, 0.67 μM, and 1 μM for cells over-expressing TP receptors. After 4.5 minutes, a 7-point serial dilution of the standard agonist for the corresponding receptor, in a 25 μl volume was injected at the final concentrations from 10^−11M to 10^−5M in 10-fold serial dilution increments for cells expressing human recombinant DP1, EP1, EP2, EP3, EP4, FP, and IP receptors. The dose range for the standard agonist for human recombinant TP receptors was from 10^−12 M to 10^−6 M. HBSS-HEPES buffer was used as the negative control for the standard agonists. Cells were excited with LED (light emitting diode) excitation at 470-495 nm and emission was measured through an emission filter at 515-575 nm. Assay plates were read for 3.5 minutes using the FLIPR^TETRA. The peak increase in fluorescence intensity was recorded for each well. On each plate, negative controls, dose response of positive controls, and co-treatments of antagonist-agonist for each dose were in triplicates.
(§5) Standard agonists were as follows: DP=BW 245C, EP1-EP4=PGE2, FP=17-phenyl-PGF2α, IP=Cicaprost, and TP=U-46619. […]

Experiment [2] concerns the target T2, human prostanoid TP receptor (Homo sapiens, UniProt P21731).
T2 construct: expressed in transfected cells
T2 sequence (P21731 1-343): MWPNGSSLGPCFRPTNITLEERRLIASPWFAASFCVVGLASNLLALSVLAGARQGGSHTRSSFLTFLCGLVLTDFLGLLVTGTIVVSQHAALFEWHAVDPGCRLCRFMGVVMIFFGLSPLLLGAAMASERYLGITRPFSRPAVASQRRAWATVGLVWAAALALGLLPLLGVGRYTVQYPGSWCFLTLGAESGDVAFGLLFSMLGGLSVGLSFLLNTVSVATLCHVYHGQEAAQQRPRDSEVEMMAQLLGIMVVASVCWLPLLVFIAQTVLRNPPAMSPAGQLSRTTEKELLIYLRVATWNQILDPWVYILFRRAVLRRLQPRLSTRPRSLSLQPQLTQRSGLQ
Nature of the experiment: FLIPR Ca2+ signaling antagonist assay, TP receptor stable cell line. The following applies: HEK-293 EBNA stable cell line; standard agonist U-46619; NA = inactive (no antagonism or Kb 10,000 nM); PAg, Ag not defined. The procedure:
as §1, §2, §3, §4, §5

Experiment [3] has as its target T3, human prostanoid FP receptor (Homo sapiens, UniProt P43088).
T3 construct: expressed in transfected cells
The experiment in a line: FLIPR Ca2+ signaling antagonist assay, FP receptor stable cell line. The following applies: HEK-293 EBNA stable cell line; standard agonist 17-phenyl-PGF2α; NA = inactive (no antagonism or Kb 10,000 nM); PAg, Ag not defined. On the procedure:
as §1, §2, §3, §4, §5

Experiment [4] concerns the target T4, human prostanoid EP1 receptor (Homo sapiens, UniProt P34995).
T4 construct: expressed in transfected cells
T4 sequence (P34995 1-402): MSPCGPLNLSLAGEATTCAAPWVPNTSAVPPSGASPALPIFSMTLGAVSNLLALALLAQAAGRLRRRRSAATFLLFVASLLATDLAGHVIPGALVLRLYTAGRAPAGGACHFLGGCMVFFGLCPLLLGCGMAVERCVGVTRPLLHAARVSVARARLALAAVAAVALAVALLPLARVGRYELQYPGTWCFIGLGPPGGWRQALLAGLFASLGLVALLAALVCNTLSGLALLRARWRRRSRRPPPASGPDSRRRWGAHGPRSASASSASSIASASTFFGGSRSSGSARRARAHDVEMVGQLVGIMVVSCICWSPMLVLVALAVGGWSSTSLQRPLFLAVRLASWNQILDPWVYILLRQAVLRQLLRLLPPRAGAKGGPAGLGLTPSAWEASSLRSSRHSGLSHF
Nature of the experiment: FLIPR Ca2+ signaling antagonist assay, EP1 receptor stable cell line. The following applies: HEK-293 EBNA stable cell line; standard agonist PGE2; NA = inactive (no antagonism or Kb 10,000 nM); PAg, Ag not defined. On the procedure: as §1, §2, §3, §4, §5

For experiment [5], the target named is T5, human prostanoid EP4 receptor (Homo sapiens, UniProt P35408).
T5 construct: expressed in transfected cells
T5 sequence (P35408 whole entry): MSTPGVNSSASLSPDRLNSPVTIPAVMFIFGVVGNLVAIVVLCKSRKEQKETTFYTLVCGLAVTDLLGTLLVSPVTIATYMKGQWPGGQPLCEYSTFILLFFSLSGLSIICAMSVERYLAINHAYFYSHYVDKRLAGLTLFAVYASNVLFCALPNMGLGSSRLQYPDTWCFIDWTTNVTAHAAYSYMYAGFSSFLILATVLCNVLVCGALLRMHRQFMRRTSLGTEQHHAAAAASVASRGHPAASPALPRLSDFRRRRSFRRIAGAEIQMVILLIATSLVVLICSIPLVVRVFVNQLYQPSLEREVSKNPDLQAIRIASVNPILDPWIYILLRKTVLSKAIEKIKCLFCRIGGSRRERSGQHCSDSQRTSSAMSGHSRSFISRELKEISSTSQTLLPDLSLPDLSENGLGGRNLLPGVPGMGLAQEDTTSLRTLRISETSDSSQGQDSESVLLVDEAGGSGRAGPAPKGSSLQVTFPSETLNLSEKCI
The experiment in a line: FLIPR Ca2+ signaling antagonist assay, EP4 receptor stable cell line. The following applies: HEK-293 EBNA stable cell line; standard agonist PGE2; NA = inactive (no antagonism or Kb 10,000 nM); PAg, Ag not defined. The procedure:
as §1, §2, §3, §4, §5

The target of experiment [6] is T6, human prostanoid IP receptor (Homo sapiens, UniProt P43119).
T6 construct: expressed in transfected cells
T6 sequence (P43119 whole entry): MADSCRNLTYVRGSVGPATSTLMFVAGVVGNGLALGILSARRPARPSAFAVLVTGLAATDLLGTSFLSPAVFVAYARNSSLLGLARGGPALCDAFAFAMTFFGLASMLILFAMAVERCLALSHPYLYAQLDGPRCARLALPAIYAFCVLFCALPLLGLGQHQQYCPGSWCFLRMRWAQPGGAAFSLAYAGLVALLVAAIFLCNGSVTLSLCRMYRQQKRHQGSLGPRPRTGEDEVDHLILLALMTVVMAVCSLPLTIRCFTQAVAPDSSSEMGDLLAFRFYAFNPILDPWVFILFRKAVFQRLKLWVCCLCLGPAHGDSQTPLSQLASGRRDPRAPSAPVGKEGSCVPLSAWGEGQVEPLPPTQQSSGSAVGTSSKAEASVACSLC
The experiment in a line: FLIPR Ca2+ signaling antagonist assay, IP receptor stable cell line. Conditions: HEK-293 EBNA stable cell line; standard agonist Cicaprost; NA = inactive (no antagonism or Kb 10,000 nM); PAg, Ag not defined. The procedure: as §1, §2, §3, §4, §5

T3 sequence (P43088 whole entry): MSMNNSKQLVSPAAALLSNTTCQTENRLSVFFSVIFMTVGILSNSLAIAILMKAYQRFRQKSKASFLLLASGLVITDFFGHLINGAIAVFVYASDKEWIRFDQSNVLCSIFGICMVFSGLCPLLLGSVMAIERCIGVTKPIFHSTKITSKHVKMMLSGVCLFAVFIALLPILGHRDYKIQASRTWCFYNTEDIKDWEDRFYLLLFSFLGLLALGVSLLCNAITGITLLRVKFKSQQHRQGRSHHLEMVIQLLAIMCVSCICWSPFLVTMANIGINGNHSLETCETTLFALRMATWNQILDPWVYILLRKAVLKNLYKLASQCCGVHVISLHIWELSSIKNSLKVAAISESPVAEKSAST

By Kb is commonly meant the affinity of an antagonist, worked out from how it opposes an agonist. Low readings indicate a more potent antagonist, high ones a less potent antagonist. On to `CCC(CC)COc1ccc(-c2ccccc2)cc1Cn1nc(CCC(=O)O)cc1C` [Example 63, 3-{1-[4-(2-Ethyl-butoxy)-biphenyl-3-ylmethyl]-5-methyl-1H-pyrazol-3-yl}-propionic acid], for which the Kb in experiment [1] was found to be 170 nM; in experiment [3] it was 60 nM; in experiment [4], 700 nM; in experiment [5], 4000 nM; in experiment [6] it was 2200 nM. Besides, the “TP (FLIPR) Kb” value in experiment [2] is “PAg”.
In the case of `CCCCCCCOc1ccc(Br)cc1Cn1nc(CCC(=O)O)cc1C` [Example 15, 3-[1-(5-Bromo-2-heptyloxybenzyl)-5-methyl-1H-pyrazol-3-yl]-propionic acid], the Kb in experiment [1] turned out to be 400 nM; in experiment [2], 500 nM; in experiment [3], 500 nM; in experiment [5], 8100 nM; in experiment [6] it was 2000 nM. In addition, the “EP1 (FLIPR) Kb” value in experiment [4] is recorded as “PAg”.
`Cc1cc(CCC(=O)O)nn1Cc1cc(Cl)ccc1OCC1CCCCC1` [Example 34, 3-[1-(5-Chloro-2-(cyclohexyl-methoxy)benzyl)-5-methyl-1H-pyrazol-3-yl]-propionic acid]: the Kb in experiment [1] worked out at 240 nM; in experiment [3] it was 200 nM; in experiment [5], 2500 nM. In addition, the “TP (FLIPR) Kb” value in experiment [2] was “Ag”. In addition, in experiment [4], the “EP1 (FLIPR) Kb” value is “Ag”. In addition, in experiment [6], the “IP (FLIPR) Kb” value is reported as “Ag”.
Turning to `CCC(CC)COc1ccc(C)cc1Cn1nc(CCC(=O)O)cc1C` [Example 65, 3-{1-[2-(2-Ethyl-butoxy)-5-methyl-benzyl]-5-methyl-1H-pyrazol-3-yl}-propionic acid], the Kb was 550 nM in experiment [1]; 10 nM in experiment [2]; 1300 nM in experiment [3]; 150 nM in experiment [4]; 100 nM in experiment [5]; 2300 nM in experiment [6].
With `CCC(CC)COc1ccc(C(C)(C)C)cc1Cn1nc(CCC(=O)O)cc1C` [Example 49, 3-[1-[2-(2-Ethyl-butoxy)-5-tert-butyl-benzyl]-5-methyl-1H-pyrazol-3-yl]-propionic acid], the Kb in experiment [1] stood at 270 nM; in experiment [2], 24 nM; in experiment [3], 1700 nM; in experiment [4], 40 nM; in experiment [5] it was 1800 nM; in experiment [6] it was 2500 nM.
`CCC(C)CCOc1ccc(Br)cc1Cn1nc(CCC(=O)O)cc1C` (stereo not drawn) [Example 7, 3-[1-(5-Bromo-2-(3-methyl-pentyloxy)-benzyl)-5-methyl-1H-pyrazol-3-yl]-propionic acid]: the antagonist equilibrium constant (Kb) in experiment [1] turned out to be 490 nM; in experiment [2], 2 nM; in experiment [3] it was 90 nM; in experiment [4], 90 nM; in experiment [5], 600 nM; in experiment [6] it was 3500 nM.
For `Cc1cc(CCC(=O)O)nn1Cc1cc(Cl)ccc1CCC1CCCC1` [Example 74], the Kb in experiment [1] came to 600 nM; in experiment [2], 190 nM; in experiment [3], 3500 nM; in experiment [4] it was 1300 nM; in experiment [5], 3300 nM; in experiment [6], 2200 nM.
On to `Cc1cc(CCC(=O)NS(=O)(=O)C(F)(F)F)nn1Cc1cc(Br)ccc1OCC1CCCC1` [Example 18, N-(3-{1-[5-Bromo-2-(2-cyclopentylmethoxy)-benzyl]-5-methyl-1H-pyrazol-3-yl}-propionyl)-C,C,C-trifluoro-methanesulfonamide], for which the Kb came out at 400 nM in experiment [1]; 2 nM in experiment [2]; 250 nM in experiment [3]; 14 nM in experiment [4]; 300 nM in experiment [5]; 3100 nM in experiment [6].
With `Cc1cc(CC(C)(C)C(=O)O)nn1Cc1cc(Cl)ccc1OCC1CCCC1` [Example 72, 3-{1-[5-Chloro-2-(2-cyclopentylmethoxy)-benzyl]-5-methyl-1H-pyrazol-3-yl}-2,2-dimethyl-propionic acid], the Kb in experiment [1] worked out at 560 nM; in experiment [2], 40 nM; in experiment [3], 450 nM; in experiment [4] it was 70 nM; in experiment [5], 180 nM; in experiment [6], 1700 nM.
Consider `C#Cc1ccc(OCC(CC)CC)c(Cn2nc(CCC(=O)O)cc2C)c1` [Example 64, 3-{1-[5-Ethynyl-2-(2-ethyl-butoxy)-benzyl]-5-methyl-1H-pyrazol-3-yl}-propionic acid], for which the Kb in experiment [1] is 800 nM; in experiment [2] it was 9 nM; in experiment [3] it was 50 nM; in experiment [4], 270 nM; in experiment [5] it was 500 nM; in experiment [6], 2000 nM.
For `CCC(CC)COc1ccc(Br)cc1Cn1ccc(CCC(=O)O)n1` [Example 59, 3-{1-[5-Bromo-2-(2-ethyl-butoxy)-benzyl]-1H-pyrazol-3-yl}-propionic acid], the antagonist equilibrium constant (Kb) in experiment [1] was determined as 300 nM; in experiment [2] it was 1 nM; in experiment [3], 1200 nM; in experiment [4], 160 nM; in experiment [5], 100 nM; in experiment [6] it was 2700 nM.
